Assays:
Dictyostelium discoideum = test: Ability to inhibit growth of Dictostelium discoideum.; type: functional, organism-based
Rattus norvegicus = species: Rattus norvegicus; test: Bone resorption activity in rats.; type: functional

Structure (SMILES) | IC50 (Dictyostelium discoideum) | LED (Rattus norvegicus)
O=P(O)(O)C(O)(C1CCc2ccncc21)P(=O)(O)O (stereo unspecified) | 36 µM | 0.01 mgP kg-1
Cc1cccnc1NC(P(=O)(O)O)P(=O)(O)O | 9 µM | 0.001 mgP kg-1
NCCCC(O)(P(=O)(O)O)P(=O)(O)O [ALENDRONIC ACID] | 32 µM | 0.001 mgP kg-1
Cc1ccnc(NC(P(=O)(O)O)P(=O)(O)O)c1 | – | 0.001 mgP kg-1
C[n+]1ccccc1CC(O)(P(=O)(O)O)P(=O)(O)O | – | 0.01 mgP kg-1
O=P(O)(O)C(Cc1cccnc1)P(=O)(O)O | – | 0.01 mgP kg-1
O=P(O)(O)C(O)(CCc1cccnc1)P(=O)(O)O | 310 µM | 1 mgP kg-1
CC(O)(P(=O)(O)O)P(=O)(O)O [ETIDRONIC ACID] | 380 µM | 1 mgP kg-1
O=P(O)(O)C(O)(Cc1ccncc1)P(=O)(O)O | – | 0.01 mgP kg-1
C[n+]1ccc(CC(O)(P(=O)(O)O)P(=O)(O)O)cc1 | – | 0.01 mgP kg-1
Cc1ccc(NC(P(=O)(O)O)P(=O)(O)O)nc1 | – | 0.001 mgP kg-1
O=P(O)(O)C(CCc1ccccn1)P(=O)(O)O | 150 µM | –
O=P(O)(O)C(Nc1ccccn1)P(=O)(O)O | 12 µM | 0.01 mgP kg-1
O=P(O)(O)C1(P(=O)(O)O)Cc2cccnc2C1 | 1200 µM | –
NCCC(O)(P(=O)(O)O)P(=O)(O)O [PAMIDRONIC ACID] | 167 µM | 0.03 mgP kg-1
O=P(O)(O)C(O)(Cc1ccccn1)P(=O)(O)O | – | 0.001 mgP kg-1
O=P(O)(O)C(Nc1ncccn1)P(=O)(O)O | – | 0.001 mgP kg-1
Cc1cccnc1NCC(P(=O)(O)O)P(=O)(O)O | 40 µM | 1 mgP kg-1
Cc1cccnc1NC(P(C)(=O)O)P(=O)(O)O (stereo unspecified) | – | 1 mgP kg-1

Structure (SMILES) | IC50 (Dictyostelium discoideum) | LED (Rattus norvegicus)
CCCCCCC[n+]1ccc(CC(O)(P(=O)(O)O)P(=O)(O)O)cc1 | – | 0.01 mgP kg-1
O=P(O)(O)C(O)(CCc1ccncc1)P(=O)(O)O | – | 1 mgP kg-1
O=P(O)(O)C(O)(Cc1cccnc1)P(=O)(O)O [RISEDRONIC ACID] | 13 µM | 0.0003 mgP kg-1
C[n+]1cccc2c1CC(P(=O)(O)O)(P(=O)(O)O)C2 | – | 0.1 mgP kg-1
O=P(O)(O)C(C1CCc2cccnc21)P(=O)(O)O (stereo unspecified) | 38 µM | 0.1 mgP kg-1
CCCCP(=O)(O)C(Nc1ncccc1C)P(=O)(O)O (stereo unspecified) | – | 1 mgP kg-1
O=P(O)(O)C(Cc1ccccn1)P(=O)(O)O [PIRIDRONIC ACID] | 20 µM | 0.01 mgP kg-1
CCN(c1ccncc1)C(P(=O)(O)O)P(=O)(O)O | – | 0.1 mgP kg-1
O=P(O)(O)C(CNc1ccccn1)P(=O)(O)O | 15 µM | 0.01 mgP kg-1
NCCCC(P(=O)(O)O)P(=O)(O)O | 44 µM | –
O=P(O)(O)C(O)(Cc1cnc2ccccn12)P(=O)(O)O [MINODRONIC ACID] | – | 0.0001 mgP kg-1
O=P(O)(O)C1(P(=O)(O)O)CC2CCCNC2C1 (stereo unspecified) | 13 µM | 0.01 mgP kg-1
CCCCCN(C)CCC(O)(P(=O)(O)O)P(=O)(O)O [IBANDRONIC ACID] | – | 0.0001 mgP kg-1
C[n+]1cccc(CC(O)(P(=O)(O)O)P(=O)(O)O)c1 | – | 0.0001 mgP kg-1
O=P(O)(O)C(Nc1ccc(Cl)cn1)P(=O)(O)O | – | 0.01 mgP kg-1
Cc1cccc(NC(P(=O)(O)O)P(=O)(O)O)n1 | – | 0.001 mgP kg-1
O=P(O)(O)C(NC1CCCCCC1)P(=O)(O)O [INCADRONIC ACID] | – | 0.001 mgP kg-1
Cc1ccc(NC(P(C)(=O)O)P(=O)(O)O)nc1 (stereo unspecified) | – | 1 mgP kg-1
O.O=P(O)(O)C(O)(Cn1ccnc1)P(=O)(O)O [ZOLEDRONIC ACID] | – | 0.0001 mgP kg-1

— ChEMBL document CHEMBL1135492, “An investigation of bone resorption and Dictyostelium discoideum growth inhibition by bisphosphonate drugs” (J Med Chem, 2002)
